Test results: patent publication US8163909B2, “Substituted hydroxyethyl amine compounds as beta-secretase modulators and methods of use” (Amgen Inc., priority 2007, dated 2012)
Like-named read-outs stand apart in the source and are kept apart here.

What was measured:
[1] = molecular target: Beta Secretase enzyme (BACE) (Homo sapiens, UniProt P56817); test: In vitro enzymatic BACE FRET (fluorescence resonance energy transfer) assay; format: biochemical;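 also: fluorescence read after 1 h with 50 nM quenched peptide substrate spanning the BACE cleavage site, in pH 4.2 acetate buffer containing 10% DMSO and nonionic detergent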
[2] = Microsomal stability assay, rat liver microsomes;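 also: rat liver microsomes (0.25 mg/mL) with about 1 µM compound plus 1 mM NADPH, pH 7.4, 37 °C for 30 min, parent left measured by LC-MS/MS against 0 min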
CYP3A4 (CYP3A) = CYP3A4 (CYP3A) (Homo sapiens, UniProt P08684); test: in vitro; conditions: microsomes, pH 7.4;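 also: inhibition of CYP3A-mediated 1-hydroxymidazolam formation after 10 min incubation with NADPH, quantified by HPLC MS relative to metabolite produced without test compound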
[3] = system: Aβ40 in conditioned medium of cells stably expressing Amyloid Precursor Protein (APP); test: In vitro BACE cell-based assay (Aβ40 in conditioned medium, sandwich ELISA); conditions: Homo sapiens;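 also: compounds added as a dilution series, secreted peptide quantified by europium time-resolved fluorescence readout, potency fitted from percent of control versus compound concentration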
Abeta peptide = test: In vivo inhibition of beta-secretase (reduction of Abeta peptide in brain and cerebrospinal fluid); parameters: species or system rat; conditions: Rattus norvegicus, po, 4 h, orally administered at 30 mg/kg dose, measured after 4 hours;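 also: abeta peptide quantified by sandwich ELISA with electrochemiluminescence readout in rat brain supernatant or CSF, relative to vehicle-dosed control animals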
[4] = Microsomal stability assay, human liver microsomes;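 also: pooled human liver microsomes at 0.25 mg/mL with 1 µM compound and NADPH at 37 °C, pH 7.4, for 30 min, unchanged parent quantified by LC-MS/MS against the 0 min sample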
CYP2D6 = CYP2D6 (Homo sapiens, UniProt P10635); test: CYP2D6 inhibition assay (bufuralol, pooled human liver microsomes)
[5] = read-out: BACE1 FRET assay (IC50)
[6] = HEK293, HEK cells, read-out: HEK cell assay (IC50)
[7] = rat cerebrospinal fluid, read-out: percent reduction of abeta peptide in the cerebrospinal fluid of the rat
[8] = rat brain, read-out: percent reduction of abeta peptide in the brain of the rat
[9] = BACE enzyme assay IC50, read-out: BACE1 FRET assay
[10] = HEK293, HEK cell-based assay IC50, read-out: HEK cell assay
[11] = 2D6 IC50 (uM), CYP2D6 inhibition
[12] = BACE enzyme assay, IC50's in uM, read-out: BACE1 FRET assay
[13] = HEK293, HEK cell-based assay, IC50's in uM, read-out: HEK cell assay
[14] = 2D6 IC50 (uM), CYP enzyme inhibition

Sequence of CYP2D6 (P10635 whole entry): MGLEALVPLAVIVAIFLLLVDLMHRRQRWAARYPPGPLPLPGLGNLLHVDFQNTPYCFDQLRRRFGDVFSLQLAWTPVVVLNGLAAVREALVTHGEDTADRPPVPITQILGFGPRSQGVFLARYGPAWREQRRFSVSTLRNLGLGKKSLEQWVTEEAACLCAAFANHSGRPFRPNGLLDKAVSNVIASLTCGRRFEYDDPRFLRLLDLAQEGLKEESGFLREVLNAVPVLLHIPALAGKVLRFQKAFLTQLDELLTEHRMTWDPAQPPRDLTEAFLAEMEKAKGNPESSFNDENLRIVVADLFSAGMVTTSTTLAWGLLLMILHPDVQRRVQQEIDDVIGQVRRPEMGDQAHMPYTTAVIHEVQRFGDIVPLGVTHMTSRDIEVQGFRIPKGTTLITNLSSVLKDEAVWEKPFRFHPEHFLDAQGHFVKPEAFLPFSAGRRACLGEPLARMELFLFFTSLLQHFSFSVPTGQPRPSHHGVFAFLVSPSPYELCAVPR
Sequence of CYP3A4 (CYP3A) (P08684 2-503): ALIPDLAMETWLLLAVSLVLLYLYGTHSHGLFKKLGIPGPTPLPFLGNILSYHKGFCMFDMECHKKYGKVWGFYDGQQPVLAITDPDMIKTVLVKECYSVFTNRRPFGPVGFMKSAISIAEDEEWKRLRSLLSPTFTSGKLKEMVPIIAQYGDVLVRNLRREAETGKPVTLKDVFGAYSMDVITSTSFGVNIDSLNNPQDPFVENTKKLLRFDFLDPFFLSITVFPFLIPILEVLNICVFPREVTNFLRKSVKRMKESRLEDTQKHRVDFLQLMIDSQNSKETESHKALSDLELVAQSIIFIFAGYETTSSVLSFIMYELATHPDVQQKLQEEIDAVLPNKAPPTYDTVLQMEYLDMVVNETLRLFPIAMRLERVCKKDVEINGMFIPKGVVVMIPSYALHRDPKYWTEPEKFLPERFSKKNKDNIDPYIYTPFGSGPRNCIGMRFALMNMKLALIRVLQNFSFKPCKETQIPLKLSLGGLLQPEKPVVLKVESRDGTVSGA
Sequence of Beta Secretase enzyme (BACE) (P56817 46-501): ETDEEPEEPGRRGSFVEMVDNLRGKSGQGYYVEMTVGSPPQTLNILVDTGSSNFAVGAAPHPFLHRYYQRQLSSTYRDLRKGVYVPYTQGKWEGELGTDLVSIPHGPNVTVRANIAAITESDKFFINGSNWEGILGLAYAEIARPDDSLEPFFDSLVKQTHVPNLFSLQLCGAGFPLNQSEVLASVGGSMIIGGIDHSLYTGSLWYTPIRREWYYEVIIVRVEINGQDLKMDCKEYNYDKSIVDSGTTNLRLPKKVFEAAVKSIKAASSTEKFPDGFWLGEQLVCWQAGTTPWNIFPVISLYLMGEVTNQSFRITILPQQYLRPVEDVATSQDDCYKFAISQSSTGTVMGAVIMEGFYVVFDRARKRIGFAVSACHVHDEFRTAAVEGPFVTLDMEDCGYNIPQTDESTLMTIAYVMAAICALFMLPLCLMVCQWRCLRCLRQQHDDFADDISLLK

| Structure (SMILES) | IC50 [1, 5] | RLM ([2]; rat liver microsomes) | IC50 (CYP3A4 (CYP3A)) | IC50 [3, 6] | inhibition in vivo at 30 mg/kg (Abeta peptide; [7]) | HLM ([4]; human liver microsomes) | IC50 (CYP2D6; 2D6 IC50, CYP2D6 inhibition) | inhibition in vivo at 30 mg/kg (Abeta peptide; [8]) | IC50 [1, 9] | IC50 [3, 10] | IC50 (CYP2D6; [11]) | IC50 [1, 12] | RLM ([2]; rat liver microsomal data) | IC50 [3, 13] | HLM ([4]; human liver microsomal data) | IC50 (CYP2D6; [14]) |
| --- | --- | --- | --- | --- | --- | --- | --- | --- | --- | --- | --- | --- | --- | --- | --- | --- |
| CC(=O)N[C@@H](Cc1cccc(-c2nccs2)c1)[C@H](O)CN[C@H]1CC2(CCC2)Oc2ccc(CC(C)(C)C)cc21 [Example 641, N-((1S,2R)-3-(((4S)-6-(2,2-dimethylpropyl)-3,4-dihydrospiro[chromene-2,1′-cyclobutan]-4-yl)amino)-2-hydroxy-1-(3-(1,3-thiazol-2-yl)benzyl)propyl)acetamide] | 0.006 µM | 165 µL/min/mg | 700 nM | 0.029 µM | 10 to 80% | 102 µL/min/mg | 0.3 µM | – | – | – | – | – | – | – | – | – |
| CC(=O)N[C@@H](Cc1cc(F)cc(-c2nccs2)c1)[C@H](O)CN[C@H]1CC2(CCC2)Oc2ncc(CC(C)(C)C)cc21 [Example 643, N-((1S,2R)-3-(((4′S)-6′-(2,2-dimethylpropyl)-3′,4′-dihydrospiro[cyclobutane-1,2′-pyrano[2,3-b]pyridin]-4′-yl)amino)-1-(3-fluoro-5-(1,3-thiazol-2-yl)benzyl)-2-hydroxypropyl)acetamide] | 0.002 µM | 56 µL/min/mg | 100 nM | 0.012 µM | 10 to 80% | 68 µL/min/mg | 0.7 µM | 5 to 80% | – | – | – | – | – | – | – | – |
| CO[C@H](C)C(=O)N[C@@H](Cc1cc(F)cc(F)c1)[C@H](O)CN[C@H]1CC2(CCC2)Oc2c1cc(CC(C)(C)C)nc2-c1cncn1C [Example 652] | 0.028 µM | 50 µL/min/mg | 160 nM | 0.02 µM | 10 to 80% | 26 µL/min/mg | 2 µM | – | – | – | – | – | – | – | – | – |
| CC(=O)N[C@@H](Cc1cc(F)cc(-c2cncs2)c1)[C@H](O)CN[C@H]1CC2(CCC2)Oc2ncc(CC(C)(C)C)cc21 [Example 671, N-((1S,2R)-3-(((4′S)-6′-(2,2-dimethylpropyl)-3′,4′-dihydrospiro[cyclobutane-1,2′-pyrano[2,3-b]pyridin]-4′-yl)amino)-1-(3-fluoro-5-(1,3-thiazol-5-yl)benzyl)-2-hydroxypropyl)acetamide] | – | 48 µL/min/mg | 100 nM | – | 10 to 80% | 99 µL/min/mg | – | – | 0.005 µM | 0.012 µM | 0.4 µM | – | – | – | – | – |
| CC(=O)N[C@@H](Cc1cc(F)cc(F)c1)[C@H](O)CN[C@H]1CC2(CCC2)Oc2c(-c3ccncc3)cc(CC(C)C)cc21 [Example 673] | – | 118 µL/min/mg | ≤ 30 nM | – | 10 to 80% | 46 µL/min/mg | – | – | 0.009 µM | 0.005 µM | 0.8 µM | – | – | – | – | – |
| CC(=O)N[C@@H](Cc1ccc(-c2nccs2)cc1)[C@H](O)CN[C@H]1CC2(CCC2)Oc2ncc(CC(C)(C)C)cc21 [Example 677] | – | 52 µL/min/mg | 100 nM | – | 10 to 80% | 57 µL/min/mg | – | 5 to 80% | 0.015 µM | 0.028 µM | 1 µM | – | – | – | – | – |
| CO[C@H](C)C(=O)N[C@@H](Cc1cc(F)cc(F)c1)[C@H](O)CN[C@H]1CC2(CCC2)Oc2c1cc(CC(C)C)nc2-c1ccncc1 [Example 687] | – | 91 µL/min/mg | ≤ 30 nM | – | 10 to 80% | 27 µL/min/mg | – | – | 0.008 µM | 0.016 µM | 0.2 µM | – | – | – | – | – |
| CO[C@H](C)C(=O)N[C@@H](Cc1ccc(F)c(-c2nccs2)c1)[C@H](O)CN[C@H]1CC2(CCC2)Oc2ncc(CC(C)(C)C)cc21 [Example 690] | – | 53 µL/min/mg | 100 nM | – | – | 40 µL/min/mg | – | 5 to 80% | 0.011 µM | 0.04 µM | 0.5 µM | – | – | – | – | – |
| COCC(=O)N[C@@H](Cc1cccc(-n2ccnc2)c1)[C@H](O)CN[C@H]1CC2(CCC2)Oc2ncc(CC(C)(C)C)cc21 [Example 698, N-((1S,2R)-3-(((4′S)-6′-(2,2-dimethylpropyl)-3′,4′-dihydrospiro[cyclobutane-1,2′-pyrano[2,3-b]pyridin]-4′-yl)amino)-2-hydroxy-1-(3-(1H-imidazol-1-yl)benzyl)propyl)-2-methoxyacetamide] | – | 33 µL/min/mg | ≤ 30 nM | – | 10 to 80% | 58 µL/min/mg | – | – | 0.026 µM | 0.009 µM | 0.1 µM | – | – | – | – | – |
| CO[C@H](C)C(=O)N[C@@H](Cc1cc(F)cc(F)c1)[C@H](O)CN[C@H]1CC2(CCC2)Oc2c1cc(CC(C)C)nc2-c1cncn1C [Example 710] | – | 39 µL/min/mg | 100 nM | – | 10 to 80% | 16 µL/min/mg | – | – | 0.026 µM | 0.018 µM | 2.8 µM | – | – | – | – | – |
| COCC(=O)N[C@@H](Cc1ccc(-c2nccs2)c(F)c1)[C@H](O)CN[C@H]1CC2(CCC2)Oc2ncc(CC(C)(C)C)cc21 [Example 730] | – | 74 µL/min/mg | ≤ 30 nM | – | 10 to 80% | 57 µL/min/mg | – | – | 0.039 µM | 0.027 µM | 0.7 µM | – | – | – | – | – |
| COCC(=O)N[C@@H](Cc1ccc(F)c(-c2nccs2)c1)[C@H](O)CN[C@H]1CC2(CCC2)Oc2ncc(CC(C)(C)F)cc21 [Example 743] | – | 31 µL/min/mg | ≤ 30 nM | – | 10 to 80% | 22 µL/min/mg | – | ≥ 30% | 0.016 µM | 0.037 µM | 0.6 µM | – | – | – | – | – |
| COCC(=O)N[C@@H](Cc1ccc(F)cc1)[C@H](O)CN[C@H]1CC(C)(C)Oc2c1cc(CC(C)C)c1c2OCO1 [Example 747] | – | 217 µL/min/mg | 200 nM | – | 10 to 80% | 125 µL/min/mg | – | – | 0.209 µM | 0.243 µM | 9.1 µM | – | – | – | – | – |
| COCC(=O)N[C@@H](Cc1cc(F)cc(-c2nccs2)c1)[C@H](O)CNC1CC2(CCC2)Oc2ncc(CC(C)(F)F)cc21 (stereo partly drawn) [Example 764, N-((1S,2R)-3-((6′-(2,2-difluoropropyl)-3′,4′-dihydrospiro[cyclobutane-1,2′-pyrano[2,3-b]pyridin]-4′-yl)amino)-1-(3-fluoro-5-(1,3-thiazol-2-yl)benzyl)-2-hydroxypropyl)-2-methoxyacetamide] | – | – | 300 nM | – | 10 to 80% | – | – | – | – | – | – | 0.011 µM | 33 µL/min/mg | 0.018 µM | 41 µL/min/mg | 0.7 µM |
| COCC(=O)N[C@@H](Cc1cc(F)cc(-c2nccs2)c1)[C@H](O)CN[C@H]1CC2(CCC2)Oc2cnc(CC(C)(C)C)cc21 [Example 782, N-((1S,2R)-3-(((4′S)-6′-(2,2-dimethylpropyl)-3′,4′-dihydrospiro[cyclobutane-1,2′-pyrano[2,3-c]pyridin]-4′-yl)amino)-1-(3-fluoro-5-(1,3-thiazol-2-yl)benzyl)-2-hydroxypropyl)-2-methoxyacetamide] | – | – | 300 nM | – | 10 to 80% | – | – | 5 to 80% | – | – | – | 0.015 µM | 130 µL/min/mg | 0.036 µM | 94 µL/min/mg | 0.4 µM |
| COC(OC)C(=O)N[C@@H](Cc1cccc(-c2nccs2)c1)[C@H](O)CN[C@H]1CC2(CCC2)Oc2ncc(CC(C)C)cc21 [Example 816, N-((1S,2R)-2-hydroxy-3-(((4′S)-6′-(2-methylpropyl)-3′,4′-dihydrospiro[cyclobutane-1,2′-pyrano[2,3-b]pyridin]-4′-yl)amino)-1-(3-(1,3-thiazol-2-yl)benzyl)propyl)-2,2-dimethoxyacetamide] | – | – | 300 nM | – | 10 to 80% | – | – | 5 to 80% | – | – | – | 0.008 µM | 44 µL/min/mg | 0.024 µM | 46 µL/min/mg | 0.7 µM |
| COC(OC)C(=O)N[C@@H](Cc1cccc(-c2ncco2)c1)[C@H](O)CN[C@H]1CC2(CCC2)Oc2ncc(CC(C)(C)C)cc21 [Example 826, N-((1S,2R)-3-(((4′S)-6′-(2,2-dimethylpropyl)-3′,4′-dihydrospiro[cyclobutane-1,2′-pyrano[2,3-b]pyridin]-4′-yl)amino)-2-hydroxy-1-(3-(1,3-oxazol-2-yl)benzyl)propyl)-2,2-dimethoxyacetamide] | – | – | 200 nM | – | 10 to 80% | – | – | 5 to 80% | – | – | – | 0.012 µM | 55 µL/min/mg | 0.013 µM | 66 µL/min/mg | 0.9 µM |
| C#Cc1cccc(C[C@H](NC(=O)COC)[C@H](O)CN[C@H]2CC3(CCC3)Oc3ncc(CC(C)(F)F)cc32)c1 [Example 829] | – | – | 200 nM | – | – | – | – | ≥ 30% | – | – | – | 0.007 µM | 23 µL/min/mg | 0.016 µM | 40 µL/min/mg | 2.3 µM |
